According to ChEMBL document CHEMBL3045271, “Synthesis and insecticidal activity of new phosphoramidates” (2012):

Assays:
Assay type in all cases: functional
Plutella xylostella [1] = test: Insecticidal activity against second-instar larvae of Plutella xylostella (diamondback moth) assessed as mortality at compound administered topically at 1 ug/mg insect measured after 24 hr
Diaphania hyalinata [2] = test: Insecticidal activity against second-instar larvae of Diaphania hyalinata assessed as mortality at compound administered topically at 1 ug/mg insect measured after 24 hr
Ascia monuste [3] = test: Insecticidal activity against second-instar larvae of Ascia monuste assessed as mortality at compound administered topically at 1 ug/mg insect measured after 72 hr
Plutella xylostella [4] = test: Insecticidal activity against second-instar larvae of Plutella xylostella (diamondback moth) assessed as mortality at compound administered topically at 1 ug/mg insect measured after 72 hr
Ascia monuste [5] = test: Insecticidal activity against second-instar larvae of Ascia monuste assessed as mortality at compound administered topically at 1 ug/mg insect measured after 24 hr
Diaphania hyalinata [6] = test: Insecticidal activity against second-instar larvae of Diaphania hyalinata assessed as mortality at compound administered topically at 1 ug/mg insect measured after 48 hr
Plutella xylostella [7] = test: Insecticidal activity against second-instar larvae of Plutella xylostella (diamondback moth) assessed as mortality at compound administered topically at 1 ug/mg insect measured after 48 hr
Diaphania hyalinata [8] = test: Insecticidal activity against second-instar larvae of Diaphania hyalinata assessed as mortality at compound administered topically at 1 ug/mg insect measured after 72 hr
Ascia monuste [9] = test: Insecticidal activity against second-instar larvae of Ascia monuste assessed as mortality at compound administered topically at 1 ug/mg insect measured after 48 hr

In the case of `Cc1ccc(CC2=CCOC2=O)cc1`, the mortality (Plutella xylostella [1]) was 12.5%, the mortality (Diaphania hyalinata [2]) was 10% and the mortality (Ascia monuste [3]) was 17.5%. The mortality (Plutella xylostella [4]) was 25%, the mortality (Ascia monuste [5]) was 5% and the mortality (Diaphania hyalinata [6]) was 10%. For the same compound, the mortality (Plutella xylostella [7]) was 17.5%, the mortality (Diaphania hyalinata [8]) was 12.5% and the mortality (Ascia monuste [9]) was 12.5%.

With `CCN(CC)P(=O)(Oc1occc1Cc1ccc(C)cc1)N(CC)CC` the mortality (Plutella xylostella [1]) was 20%, the mortality (Diaphania hyalinata [2]) was 25% and the mortality (Ascia monuste [3]) was 17.5%. The mortality (Plutella xylostella [4]) was 32.5%, the mortality (Ascia monuste [5]) was 5% and the mortality (Diaphania hyalinata [6]) was 25%. The mortality (Plutella xylostella [7]) was 25%, the mortality (Diaphania hyalinata [8]) was 30% and the mortality (Ascia monuste [9]) was 15%.

`CCN(CC)P(=O)(Oc1occc1Cc1cccc(C)c1)N(CC)CC` was tested, and the mortality (Plutella xylostella [1]) was 22.5%, the mortality (Diaphania hyalinata [2]) was 15% and the mortality (Ascia monuste [3]) was 12.5%. For the same compound, the mortality (Plutella xylostella [4]) was 45%, the mortality (Ascia monuste [5]) was 7.5% and the mortality (Diaphania hyalinata [6]) was 15%. The mortality (Plutella xylostella [7]) was 40%, the mortality (Diaphania hyalinata [8]) was 15% and the mortality (Ascia monuste [9]) was 12.5%.

Work on `CCN(CC)P(=O)(Oc1occc1Cc1ccccc1)N(CC)CC` yielded a mortality (Plutella xylostella [1]) of 25%, a mortality (Diaphania hyalinata [2]) of 5% and a mortality (Ascia monuste [3]) of 25%. The mortality (Plutella xylostella [4]) was 45%, the mortality (Ascia monuste [5]) was 22.5% and the mortality (Diaphania hyalinata [6]) was 5%. The mortality (Plutella xylostella [7]) was 30%, the mortality (Diaphania hyalinata [8]) was 5% and the mortality (Ascia monuste [9]) was 27.5%.

With `CCN(CC)P(=O)(Oc1occc1Cc1cccc(Br)c1)N(CC)CC` the mortality (Plutella xylostella [1]) was 27.5%, the mortality (Diaphania hyalinata [2]) was 25% and the mortality (Ascia monuste [3]) was 10%. It also gave a mortality (Plutella xylostella [4]) of 47.5%, a mortality (Ascia monuste [5]) of 2.5% and a mortality (Diaphania hyalinata [6]) of 25%. The mortality (Plutella xylostella [7]) was 32.5%, the mortality (Diaphania hyalinata [8]) was 27.5% and the mortality (Ascia monuste [9]) was 7.5%.

With `CCN(CC)P(=O)(Oc1occc1Cc1ccccc1Cl)N(CC)CC` the mortality (Plutella xylostella [1]) was 20%, the mortality (Diaphania hyalinata [2]) was 10% and the mortality (Ascia monuste [3]) was 5%. It also gave a mortality (Plutella xylostella [4]) of 45%, a mortality (Ascia monuste [5]) of 5% and a mortality (Diaphania hyalinata [6]) of 10%. The mortality (Plutella xylostella [7]) was 32.5%, the mortality (Diaphania hyalinata [8]) was 10% and the mortality (Ascia monuste [9]) was 5%.

`CCN(CC)P(=O)(Oc1occc1Cc1cccc(F)c1)N(CC)CC` showed a mortality (Plutella xylostella [1]) of 30%, a mortality (Diaphania hyalinata [2]) of 23.3% and a mortality (Ascia monuste [3]) of 15%. For the same compound, the mortality (Plutella xylostella [4]) was 52.5%, the mortality (Ascia monuste [5]) was 5% and the mortality (Diaphania hyalinata [6]) was 23.3%. The mortality (Plutella xylostella [7]) was 42.5%, the mortality (Diaphania hyalinata [8]) was 36.6% and the mortality (Ascia monuste [9]) was 17.5%.

Compound `CCN(CC)P(=O)(Oc1occc1Cc1ccccc1F)N(CC)CC` has a mortality (Plutella xylostella [1]) of 12.5%, a mortality (Diaphania hyalinata [2]) of 23.3% and a mortality (Ascia monuste [3]) of 32.5%. For the same compound, the mortality (Plutella xylostella [4]) was 35%, the mortality (Ascia monuste [5]) was 22.5% and the mortality (Diaphania hyalinata [6]) was 23.3%. For the same compound, the mortality (Plutella xylostella [7]) was 22.5%, the mortality (Diaphania hyalinata [8]) was 23.3% and the mortality (Ascia monuste [9]) was 27.5%.

In the case of `CCN(CC)P(=O)(Oc1occc1Cc1cccc(Cl)c1)N(CC)CC`, the mortality (Plutella xylostella [1]) was 5%, the mortality (Diaphania hyalinata [2]) was 12.5% and the mortality (Ascia monuste [3]) was 12.5%. It also gave a mortality (Plutella xylostella [4]) of 37.5%, a mortality (Ascia monuste [5]) of 0% and a mortality (Diaphania hyalinata [6]) of 12.5%. The mortality (Plutella xylostella [7]) was 22.5%, the mortality (Diaphania hyalinata [8]) was 12.5% and the mortality (Ascia monuste [9]) was 7.5%.

For `CCN(CC)P(=O)(Oc1occc1Cc1ccc(Br)cc1)N(CC)CC`, the mortality (Plutella xylostella [1]) was 7.5%, the mortality (Diaphania hyalinata [2]) was 27.5% and the mortality (Ascia monuste [3]) was 7.5%. For the same compound, the mortality (Plutella xylostella [4]) was 32.5%, the mortality (Ascia monuste [5]) was 2.5% and the mortality (Diaphania hyalinata [6]) was 27.5%. For the same compound, the mortality (Plutella xylostella [7]) was 20%, the mortality (Diaphania hyalinata [8]) was 35% and the mortality (Ascia monuste [9]) was 5%.

`CCN(CC)P(=O)(Oc1occc1Cc1c(C)cccc1Cl)N(CC)CC` gave a mortality (Plutella xylostella [1]) of 5.3%, a mortality (Diaphania hyalinata [2]) of 20% and a mortality (Ascia monuste [3]) of 20%. The mortality (Plutella xylostella [4]) was 37.5%, the mortality (Ascia monuste [5]) was 5% and the mortality (Diaphania hyalinata [6]) was 20%. It also gave a mortality (Plutella xylostella [7]) of 20%, a mortality (Diaphania hyalinata [8]) of 20% and a mortality (Ascia monuste [9]) of 15%.

`O=P(NC1CCCCC1)(NC1CCCCC1)Oc1ccco1` showed a mortality (Plutella xylostella [1]) of 2.5%, a mortality (Diaphania hyalinata [2]) of 2.5% and a mortality (Ascia monuste [3]) of 70%. For the same compound, the mortality (Plutella xylostella [4]) was 12.5%, the mortality (Ascia monuste [5]) was 70% and the mortality (Diaphania hyalinata [6]) was 2.5%. The mortality (Plutella xylostella [7]) was 7.5%, the mortality (Diaphania hyalinata [8]) was 10% and the mortality (Ascia monuste [9]) was 70%.

Compound `O=P(Oc1ccco1)(N1CCCCC1)N1CCCCC1` has a mortality (Plutella xylostella [1]) of 5%, a mortality (Diaphania hyalinata [2]) of 7.5% and a mortality (Ascia monuste [3]) of 75%. It also gave a mortality (Plutella xylostella [4]) of 20%, a mortality (Ascia monuste [5]) of 70% and a mortality (Diaphania hyalinata [6]) of 7.5%. It also gave a mortality (Plutella xylostella [7]) of 10%, a mortality (Diaphania hyalinata [8]) of 10% and a mortality (Ascia monuste [9]) of 75%.

`O=P(Oc1ccco1)(Oc1ccco1)N1CCCCC1` showed a mortality (Plutella xylostella [1]) of 5%, a mortality (Diaphania hyalinata [2]) of 7.5% and a mortality (Ascia monuste [3]) of 90%. For the same compound, the mortality (Plutella xylostella [4]) was 10%, the mortality (Ascia monuste [5]) was 87.5% and the mortality (Diaphania hyalinata [6]) was 7.5%. For the same compound, the mortality (Plutella xylostella [7]) was 5%, the mortality (Diaphania hyalinata [8]) was 17.5% and the mortality (Ascia monuste [9]) was 87.5%.

Compound `CCN(CC)P(=O)(Oc1ccco1)N(CC)CC` has a mortality (Plutella xylostella [1]) of 7.5%, a mortality (Diaphania hyalinata [2]) of 22.5% and a mortality (Ascia monuste [3]) of 12.5%. For the same compound, the mortality (Plutella xylostella [4]) was 22.5%, the mortality (Ascia monuste [5]) was 2.5% and the mortality (Diaphania hyalinata [6]) was 22.5%. The mortality (Plutella xylostella [7]) was 10%, the mortality (Diaphania hyalinata [8]) was 25% and the mortality (Ascia monuste [9]) was 10%.

`CCN(CC)P(=O)(Oc1ccco1)Oc1ccco1` showed a mortality (Plutella xylostella [1]) of 17.5%, a mortality (Diaphania hyalinata [2]) of 55% and a mortality (Ascia monuste [3]) of 67.5%. It also gave a mortality (Plutella xylostella [4]) of 30%, a mortality (Ascia monuste [5]) of 62.5% and a mortality (Diaphania hyalinata [6]) of 55%. For the same compound, the mortality (Plutella xylostella [7]) was 20%, the mortality (Diaphania hyalinata [8]) was 70% and the mortality (Ascia monuste [9]) was 65%.

Work on `COP(=S)(OC)Oc1nc(Cl)c(Cl)cc1Cl` [CHLORPYRIFOS-METHYL] yielded a mortality (Plutella xylostella [1]) of 100%, a mortality (Diaphania hyalinata [2]) of 100% and a mortality (Ascia monuste [3]) of 100%. The mortality (Plutella xylostella [4]) was 100%, the mortality (Ascia monuste [5]) was 100% and the mortality (Diaphania hyalinata [6]) was 100%. It also gave a mortality (Plutella xylostella [7]) of 100%, a mortality (Diaphania hyalinata [8]) of 100% and a mortality (Ascia monuste [9]) of 100%.

In the case of `O=C1C=CCO1` [FURAN-2(5H)-ONE], the mortality (Plutella xylostella [1]) was 27.5%, the mortality (Diaphania hyalinata [2]) was 18.9% and the mortality (Ascia monuste [3]) was 25%. It also gave a mortality (Plutella xylostella [4]) of 32.5%, a mortality (Ascia monuste [5]) of 12.5% and a mortality (Diaphania hyalinata [6]) of 18.9%. The mortality (Plutella xylostella [7]) was 27.5%, the mortality (Diaphania hyalinata [8]) was 24.3% and the mortality (Ascia monuste [9]) was 22.5%.
